The text below walks through data of patent publication US6878751B1, “Administration of resveratrol to treat inflammatory respiratory disorders” (Imperial College of Science Technology and Medicine, priority 2000, dated 2005).

For assay [1], the system named is CRE dependent transcription. As to the kind of experiment: CRE luciferase reporter in stably transfected A549 cells. Type of assay: cell-based, human. The method, then:
(§1) The expression of inflammatory genes was then evaluated in cells transformed with luciferase reporter genes containing sites for transcription factors (Tf, Tfs). The A549 cells were stably transfected by routine methods with luciferase reporters containing the transcription factors NF-κB, TRE (AP-1, TPA responsive element) and CRE (cAMP responsive element). Luciferase activity of cell lysates resuspended in […] cell lysis buffer mixed (40 mml resuspended lysate: 40 mml assay reagent) was measured using the Luciferase Assay System (Promega), with emitted light measured by a Turner DesignsTD-20/20 luminometer (Steptech Instruments Ltd., Stevenage, U.K.)
(A reporter such as luciferase makes a cellular process visible.)

Assay [2] deals with NF-κB dependent transcription. Description: NF-κB luciferase reporter in stably transfected A549 cells. Type of assay: cell-based, human. As for the experimental part: as §1

What is called EC50 is the concentration needed to bring the measured effect to its halfway point. As to `C[C@@H]1C[C@H]2[C@@H]3CCC4=CC(=O)C=C[C@]4(C)[C@@]3(F)[C@@H](O)C[C@]2(C)[C@@]1(O)C(=O)CO` [Dexamethasone, dexamethasone, reference compound], the “extent of inhibition of CRE dependent transcription” value in assay [1] is reported as 62%. The EC50 in assay [1] (Homo sapiens, read-out: EC50 for inhibition of CRE dependent transcription) was 3.4 ± 3 µM; in assay [2] (Homo sapiens, read-out: EC50 for inhibition of NF-κB dependent transcription) it was 16 ± 12 µM. Moreover, the “extent of inhibition of NF-κB dependent transcription” value in assay [2] is on record as 41%.
